According to the supplement of paper PMC10307832:

Columns and labels:
Experiment in all cases: relative viability (nuclei count vs DMSO), 5 days (fraction); higher = more cells survive
Zosuquidar + Palbociclib = compound: O[C@@H](COc1cccc2ncccc12)CN1CCN([C@@H]2c3ccccc3[C@@H]3[C@H](c4ccccc42)C3(F)F)CC1 [Zosuquidar] + CC(=O)c1c(C)c2cnc(Nc3ccc(N4CCNCC4)cn3)nc2n(C2CCCC2)c1=O [Palbociclib] (partner 0.5 µM)
In short: (§1)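 Cells from lung cancer lines were seeded into 1536-well plates and, one day later, dosed by pin tool. Treatments were either a single drug or a fixed dose of an anchor drug with five library-drug doses (not always all listed) in √10 steps. After 5 days, nuclei were stained in a one-step fixation (final 0.05% Triton X-100, 1% formaldehyde, 1 ug/ml Hoechst) and counted on 4× images, and relative viability is the treated-to-vehicle nuclei ratio, as the median of duplicate plates.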

Zosuquidar + Vorinostat = compound: O[C@@H](COc1cccc2ncccc12)CN1CCN([C@@H]2c3ccccc3[C@@H]3[C@H](c4ccccc42)C3(F)F)CC1 [Zosuquidar] + O=C(CCCCCCC(=O)Nc1ccccc1)NO [Vorinostat] (partner 1 µM)
In short: as §1

[1] = compound: COc1cc2nccc(Oc3ccc(NC(=O)C4(C(=O)Nc5ccc(F)cc5)CC4)cc3)c2cc1OC [Cabozantinib] + Nc1ncn([C@H]2C[C@H](O)[C@@H](CO)O2)c(=O)n1 [Decitabine] (partner 2 µM)
In short: as §1

Cabozantinib + Alpelisib = compound: COc1cc2nccc(Oc3ccc(NC(=O)C4(C(=O)Nc5ccc(F)cc5)CC4)cc3)c2cc1OC [Cabozantinib] + Cc1nc(NC(=O)N2CCC[C@H]2C(N)=O)sc1-c1ccnc(C(C)(C)C(F)(F)F)c1 [Alpelisib] (partner 2 µM)
In short: as §1

Row | Cell Line | relative viability (Zosuquidar + Palbociclib; first compound 0.01 µM) | relative viability (Zosuquidar + Palbociclib; first compound 0.03162 µM) | relative viability (Zosuquidar + Palbociclib; first compound 0.1 µM) | relative viability (Zosuquidar + Palbociclib; first compound 0.3162 µM) | relative viability (Zosuquidar + Palbociclib; first compound 1 µM) | relative viability (Zosuquidar + Vorinostat; first compound 0.01 µM) | relative viability (Zosuquidar + Vorinostat; first compound 0.03162 µM) | relative viability (Zosuquidar + Vorinostat; first compound 0.1 µM) | relative viability (Zosuquidar + Vorinostat; first compound 0.3162 µM) | relative viability (Zosuquidar + Vorinostat; first compound 1 µM) | relative viability ([1]; first compound 0.02 µM) | relative viability ([1]; first compound 0.06325 µM) | relative viability ([1]; first compound 0.2 µM) | relative viability ([1]; first compound 0.6325 µM) | relative viability ([1]; first compound 2 µM) | relative viability (Cabozantinib + Alpelisib; first compound 0.02 µM) | relative viability (Cabozantinib + Alpelisib; first compound 0.06325 µM) | relative viability (Cabozantinib + Alpelisib; first compound 0.2 µM) | relative viability (Cabozantinib + Alpelisib; first compound 0.6325 µM) | relative viability (Cabozantinib + Alpelisib; first compound 2 µM)
1 | HCC-15 | 0.721 | 0.689 | 0.702 | 0.723 | 0.715 | 0.844 | 0.745 | 0.716 | 0.894 | 0.877 | 0.562 | 0.788 | 0.683 | 0.644 | 0.536 | 0.881 | 0.933 | 0.925 | 0.905 | 0.761
2 | NCI-H1650 | 0.373 | 0.31 | 0.365 | 0.351 | 0.337 | 0.584 | 0.587 | 0.532 | 0.665 | 0.546 | 0.386 | 0.401 | 0.365 | 0.514 | 0.548 |  |  |  |  | 
3 | COR-L 105 | 0.372 | 0.376 | 0.478 | 0.417 | 0.385 | 0.961 | 0.826 | 0.777 | 0.891 | 0.875 | 0.606 | 0.764 | 0.582 | 0.735 | 0.69 | 0.898 | 1.08 |  | 0.945 | 0.859
4 | NCI-H650 | 0.305 | 0.327 | 0.331 | 0.364 | 0.378 | 0.452 | 0.414 | 0.397 | 0.577 | 0.435 | 0.315 | 0.372 | 0.45 | 0.338 | 0.304 | 1.04 | 1.01 | 1.13 | 1.05 | 0.926
